Data on eleven compounds can be found in paper PMC8987054, “Structural basis for PoxtA-mediated resistance to phenicol and oxazolidinone antibiotics” (Nature Communications, 2022).

In brackets after ≈: the same amount, converted by molar mass. Where two headings read alike, the source gives them in different places.

In assay [1] the test system is T1, E. faecium 9-F-6.
T1 construct: 9-F-6 (ST872)
Nature of the assay: microbe, parasite or virus in culture. More on the design: Broth microdilution MIC, EUENCF Sensititre plate, multidrug-resistant clinical isolate. To be noted: Enterococcus faecium, 9F6, read-out: MIC BMD. An excerpt:
(§1) ST872 is a single locus variant of ST80 which is a pandemic hospital-adapted genetic lineage. […] The results (MICs) were interpreted according to EUCAST clinical breakpoints v.

Assay [2] relates to T1, E. faecium 9-F-6. Briefly: microbe, parasite or virus in culture. Set-up: Gradient test MIC (MIC Test Strip, Liofilchem), multidrug-resistant clinical isolate. The settings on record: Enterococcus faecium, 9F6, read-out: MIC GRAD.
Description: as §1

Consider `CC1(C)S[C@@H]2[C@H](NC(=O)[C@H](N)c3ccc(O)cc3)C(=O)N2[C@H]1C(=O)O` [Amoxicillin], for which, in the assay on E. faecium 9-F-6 [1], the MIC is above 32 µg/mL. As to `CC1(C)S[C@@H]2[C@H](NC(=O)[C@H](N)c3ccccc3)C(=O)N2[C@H]1C(=O)O` [Ampicillin], the MIC was above 256 µg/mL with E. faecium 9-F-6 [2] and above 32 µg/mL in the assay with E. faecium 9-F-6 [1].

Regarding `O=C(N[C@H](CO)[C@H](O)c1ccc([N+](=O)[O-])cc1)C(Cl)Cl` [Chloramphenicol], the MIC in the assay on E. faecium 9-F-6 [2] was 16 µg/mL (≈ 49.5 µM). On to `CCC[C@@H]1C[C@@H](C(=O)N[C@@H]([C@H]2O[C@H](SC)[C@H](O)[C@@H](O)[C@H]2O)[C@H](C)Cl)N(C)C1` [Clindamycin], for which the MIC in the assay on E. faecium 9-F-6 [2] was above 256 µg/mL. As for `CNC(C)[C@@H]1CC[C@@H](N)[C@@H](O[C@H]2[C@H](O)[C@@H](O[C@H]3OC[C@](C)(O)[C@H](NC)[C@H]3O)[C@H](N)C[C@@H]2N)O1` (some centres unmarked) [Gentamicin], the MIC with E. faecium 9-F-6 [2] was above 1020 µg/mL; in the assay on E. faecium 9-F-6 [1], above 256 µg/mL. As for `C[C@@H](O)[C@H]1C(=O)N2C(C(=O)O)=C(SCCNC=N)C[C@H]12` [Imipenem], the MIC in the assay with E. faecium 9-F-6 [1] was above 16 µg/mL. On the same count and under the same terms, as for `C[C@H]1COc2c(N3CCN(C)CC3)c(F)cc3c(=O)c(C(=O)O)cn1c23` [Levofloxacin], the figure is above 16 µg/mL.

As to `CC(=O)NC[C@H]1CN(c2ccc(N3CCOCC3)c(F)c2)C(=O)O1` [Linezolid], in the assay on E. faecium 9-F-6 [1], the MIC was 8 µg/mL (≈ 23.7 µM). The same measure, in the same setting: as for `CN[C@@H]1[C@H](O[C@H]2[C@H](O[C@H]3[C@H](O)[C@@H](O)[C@H](N=C(N)N)[C@@H](O)[C@@H]3N=C(N)N)O[C@@H](C)[C@]2(O)C=O)O[C@@H](CO)[C@H](O)[C@H]1O` [Streptomycin], the figure is above 1020 µg/mL; as for `CN(C)c1cc(NC(=O)CNC(C)(C)C)c(O)c2c1C[C@H]1C[C@H]3[C@H](N(C)C)C(O)=C(C(N)=O)C(=O)[C@@]3(O)C(O)=C1C2=O` [Tigecycline], 0.12 µg/mL (≈ 0.205 µM). In the case of `CN[C@H](CC(C)C)C(=O)N[C@H]1C(=O)N[C@@H](CC(N)=O)C(=O)N[C@H]2C(=O)N[C@H]3C(=O)N[C@H](C(=O)N[C@H](C(=O)O)c4cc(O)cc(O)c4-c4cc3ccc4O)[C@H](O)c3ccc(c(Cl)c3)Oc3cc2cc(c3O[C@@H]2O[C@H](CO)[C@@H](O)[C@H](O)[C@H]2O[C@H]2C[C@](C)(N)[C@H](O)[C@H](C)O2)Oc2ccc(cc2Cl)[C@H]1O` [Vancomycin], the results for the MIC in the assay with E. faecium 9-F-6 [2] and in the assay on E. faecium 9-F-6 [1] were above 256 µg/mL and above 16 µg/mL, respectively.
